SMILES strings stand for the structures.

For this test, the system named is Trypanosoma cruzi. The test is described as follows: Trypanocidal activity against Trypanosoma cruzi Y trypomastigotes assessed as parasite lysis. Type of test: functional, organism-based.
A word on the IC50: it is the point on the concentration scale where inhibition reaches its midpoint. For `Cn1c([N+](=O)[O-])cnc1-c1nnc(N/N=C/c2ccccc2Cl)s1`, the IC50 was 140 µM.
The figure for `Cn1c([N+](=O)[O-])cnc1-c1nnc(N/N=C/c2cccc(Cl)c2Cl)s1` is 1210 µM.
With `Cn1c([N+](=O)[O-])cnc1-c1nnc(N/N=C/c2ccccc2[N+](=O)[O-])s1`, the IC50 came to 726 µM.
Regarding `COc1cc(/C=N/Nc2nnc(-c3ncc([N+](=O)[O-])n3C)s2)cc([N+](=O)[O-])c1O`, the IC50 was 19 µM.
The figure for `Cn1c([N+](=O)[O-])cnc1-c1nnc(N/N=C/c2cccc(O)c2)s1` is 73.9 µM; for `Cn1c([N+](=O)[O-])cnc1-c1nnc(N/N=C/c2ccccc2Br)s1` it is 900 µM.
In the case of `Cn1c([N+](=O)[O-])cnc1-c1nnc(N/N=C/c2cccc(Br)c2)s1`, the IC50 turned out to be 728 µM.
The same measure for `Cn1c([N+](=O)[O-])cnc1-c1nnc(N/N=C/c2cccc([N+](=O)[O-])c2)s1`: 48.2 µM; for `Cn1c([N+](=O)[O-])cnc1-c1nnc(N/N=C/c2ccc(Cl)cc2Cl)s1`: 794 µM; for `Cn1c([N+](=O)[O-])cnc1-c1nnc(N/N=C/c2cc(O)ccc2O)s1`: 140 µM.
The same measure for `Cn1c([N+](=O)[O-])cnc1-c1nnc(N/N=C/c2cccc(O)c2O)s1`: 309 µM; for `Cn1c([N+](=O)[O-])cnc1-c1nnc(N/N=C/c2cccc(Cl)c2)s1`: 187 µM.

Source of the values: ChEMBL document CHEMBL1140757, “Studies toward the structural optimization of new brazilizone-related trypanocidal 1,3,4-thiadiazole-2-arylhydrazone derivatives” (Bioorg Med Chem, 2008).
